Measured values as given in article PMC4698308, “A new amino acid substitution (Ala-205-Phe) in acetolactate synthase (ALS) confers broad spectrum resistance to ALS-inhibiting herbicides” (Planta, 2015).

Tests used:
[1] = system: annual bluegrass (Poa annua L.); assay: Whole plant confirmation of target-site resistance (visual control and dry biomass 28 days after treatment); type: in vivo
Experimental: Progeny of all POAAN-R3 plants subjected to genetic sequencing (RP1–RP8) were surface seeded into separate 10.2 × 10.2 cm greenhouse pots (Dillen Products/Myers Industries, Inc. Middlefield, OH, USA.) filled with a peat moss growing medium (ProMix BX Mycorrhizae. Premier Tech Horticulture, Quakertown, PA, USA) on 5 January 2015. The susceptible annual bluegrass population (S) included in our sequencing analysis was also seeded in the same fashion.
After seeding, pots were placed inside a growth chamber (Conviron A1000. Controlled Environments Inc, Hendersonville, NC) configured to provide 14 h day at 19 °C and a 10 h night at 10 °C. Light intensity inside the chamber averaged 296 μmol m^−2 s^−1. Irrigation was applied to each pot daily using distilled water and a misting nozzle. Annual bluegrass emergence was first noted on 16 January 2015. Plants remained inside the growth chamber until 26 January 2015. On this date, seedlings of each plant (RP1–RP8, S) were transplanted into individual 164 cm^3 plastic conical containers (SC10 Super Cell Cone-tainer. Stuewe and Sons. Tangent, OR 97389) filled with Sequatchie silt loam (fine-loamy, siliceous, semiactive, thermic humic Hapludult) measuring 6.2 in soil pH and 2.1 % in organic matter content. Transplants were replicated such that 32 plastic conical containers were created for each annual bluegrass plant analyzed in previous experiments (RP1–RP8, S). Immediately after transplanting, plastic conical containers were placed in a glasshouse located at the University of Tennessee (Knoxville, TN, USA; 35.56, 83.56). Peak light intensity in this glasshouse averaged 714 μmol m^−2 s^−1 with day/night temperatures averaging 27/17 °C. Irrigation was applied daily using an overhead misting system and plants were not clipped prior to initiating this study.
Plants were allowed to acclimate to this glasshouse environment for 10 days prior to being treated with foramsulfuron (Revolver. Bayer Environmental Sciences. Research Triangle Park, NC, USA) at 29 g ha^−1, imazamox (Clearcast. BASF Corporation. Research Triangle Park, NC) at 140 g ha^−1, or simazine (Princep 4L. Syngenta Professional Products. Greensboro, NC) at 1120 g ha^−1. Per label recommendations, imazamox and simazine treatments included a non-ionic surfactant (Activator-90. Loveland Products Inc. Greeley, CO, USA) at 0.25 % v/v. All treatments were applied in an enclosed spray chamber (Generation III track sprayer. DeVries Manufacturing, Hollandale, MN, USA) using a water carrier at 215 L ha^−1 through an 8004 EVS nozzle (TeeJet, Technologies, Spraying Systems Co., Glendale Heights, IL, USA). These herbicide treatments were selected to confirm results of genetic sequencing that RP1–RP8 were resistant to sulfonylurea, imidazolinone, and photosystem II inhibiting herbicides. A non-treated control treatment was included with each resistant (RP1–RP8) and susceptible (S) plant for comparison. Herbicides were applied on 5 February 2015 when plants were at a two-to-three leaf stage, prior to annual bluegrass tiller formation.
Annual bluegrass control was visually assessed on a 0 (i.e., no control) to 100 % (i.e., complete kill) scale relative to the non-treated 28 days after treatment. After all control data had been collected, aboveground biomass was harvested from each plastic conical container at the soil line using scissors, dried at 100 °C for 3 days, and weighed.
Treatments were arranged as a 9 × 4 factorial with nine plant selections (i.e., RP1–RP8, S) and four herbicide treatments (i.e., foramsulfuron, imazamox, simazine, non-treated) in a completely randomized design with four replications and repeated in time and space during February 2015. Plants were the same age during both experimental runs.

[2] = system: annual bluegrass (Poa annua L.); assay: Whole plant non-target site resistance experiment with P450 inhibitors malathion or PBO (control 21 days after treatment); type: in vivo; conditions: for Annual bluegrass control S: susceptible (S)

In the case of `COc1cc(OC)nc(NC(=O)NS(=O)(=O)c2cc(NC=O)ccc2C(=O)N(C)C)n1` [Foramsulfuron], the “annual bluegrass control, resistant plants with the exception of RP6” value ([1]; 28 days after treatment, summary over RP1–RP5, RP7, RP8) is reported as no more than 11%, the “Annual bluegrass biomass RP1” value ([1]; RP1, aboveground dry biomass 28 days after treatment, foramsulfuron 29, imazamox 140, simazine 1120 g ha^-1) is reported as 60 % of nontreated control and the “Annual bluegrass control RP1” value ([1]; RP1 plants, 28 days after treatment, 2 to 3 leaf stage, foramsulfuron 29, imazamox 140, simazine 1120 g ha^−1) is reported as 8%. The “Annual bluegrass biomass RP2” value ([1]; RP2, aboveground dry biomass 28 days after treatment, foramsulfuron 29, imazamox 140, simazine 1120 g ha^-1) was 45 % of nontreated control, the “Annual bluegrass control RP2” value ([1]; RP2 plants, 28 days after treatment, 2 to 3 leaf stage, foramsulfuron 29, imazamox 140, simazine 1120 g ha^−1) was 11% and the “Annual bluegrass biomass RP3” value ([1]; RP3, aboveground dry biomass 28 days after treatment, foramsulfuron 29, imazamox 140, simazine 1120 g ha^-1) was 48 % of nontreated control. For the same compound, the “Annual bluegrass control RP3” value ([1]; RP3 plants, 28 days after treatment, 2 to 3 leaf stage, foramsulfuron 29, imazamox 140, simazine 1120 g ha^−1) was 11%, the “Annual bluegrass biomass RP4” value ([1]; RP4, aboveground dry biomass 28 days after treatment, foramsulfuron 29, imazamox 140, simazine 1120 g ha^-1) was 41 % of nontreated control and the “Annual bluegrass control RP4” value ([1]; RP4 plants, 28 days after treatment, 2 to 3 leaf stage, foramsulfuron 29, imazamox 140, simazine 1120 g ha^−1) was 5%. For the same compound, the “Annual bluegrass biomass RP5” value ([1]; RP5, aboveground dry biomass 28 days after treatment, foramsulfuron 29, imazamox 140, simazine 1120 g ha^-1) was 62 % of nontreated control, the “Annual bluegrass control RP5” value ([1]; RP5 plants, 28 days after treatment, 2 to 3 leaf stage, foramsulfuron 29, imazamox 140, simazine 1120 g ha^−1) was 10% and the “Annual bluegrass biomass RP6” value ([1]; RP6, aboveground dry biomass 28 days after treatment, foramsulfuron 29, imazamox 140, simazine 1120 g ha^-1) was 49 % of nontreated control. For the same compound, the “Annual bluegrass control RP6” value ([1]; RP6 plants, 28 days after treatment, 2 to 3 leaf stage, foramsulfuron 29, imazamox 140, simazine 1120 g ha^−1) was 24%, the “Annual bluegrass biomass RP7” value ([1]; RP7, aboveground dry biomass 28 days after treatment, foramsulfuron 29, imazamox 140, simazine 1120 g ha^-1) was 52 % of nontreated control and the “Annual bluegrass control RP7” value ([1]; RP7 plants, 28 days after treatment, 2 to 3 leaf stage, foramsulfuron 29, imazamox 140, simazine 1120 g ha^−1) was 10%. For the same compound, the “Annual bluegrass biomass RP8” value ([1]; RP8, aboveground dry biomass 28 days after treatment, foramsulfuron 29, imazamox 140, simazine 1120 g ha^-1) was 51 % of nontreated control, the “Annual bluegrass control RP8” value ([1]; RP8 plants, 28 days after treatment, 2 to 3 leaf stage, foramsulfuron 29, imazamox 140, simazine 1120 g ha^−1) was 5% and the “Annual bluegrass control S” value ([1]; susceptible (S) plants, 28 days after treatment, 2 to 3 leaf stage, foramsulfuron 29, imazamox 140, simazine 1120 g ha^−1) was 93%. For the same compound, the “Annual bluegrass biomass S” value ([1]; susceptible (S), aboveground dry biomass 28 days after treatment, foramsulfuron 29, imazamox 140, simazine 1120 g ha^-1) was 0 % of nontreated control, the “Annual bluegrass control RP6” value ([2]; RP6, herbicide alone, foramsulfuron 29, trifloxysulfuron 27.8, imazaquin 27.5, bispyribac-sodium 70 g ha^−1) was 58% and the “Annual bluegrass control RP6” value ([2]; RP6, herbicide with PBO 2100 g ha^−1 applied 60 min prior) was 31%. The “Annual bluegrass control RP6” value ([2]; RP6, herbicide with malathion 1000 g ha^−1 applied 60 min prior) was 24%, the “Annual bluegrass control RP7” value ([2]; RP7, herbicide alone, foramsulfuron 29, trifloxysulfuron 27.8, imazaquin 27.5, bispyribac-sodium 70 g ha^−1) was 28% and the “Annual bluegrass control RP7” value ([2]; RP7, herbicide with PBO 2100 g ha^−1 applied 60 min prior) was 24%. For the same compound, the “Annual bluegrass control RP7” value ([2]; RP7, herbicide with malathion 1000 g ha^−1 applied 60 min prior) was 22%, the “Annual bluegrass control S” value ([2]; herbicide alone, foramsulfuron 29, trifloxysulfuron 27.8, imazaquin 27.5, bispyribac-sodium 70 g ha^−1) was 91% and the “Annual bluegrass control S” value ([2]; herbicide with PBO 2100 g ha^−1 applied 60 min prior) was 95%. For the same compound, the “Annual bluegrass control S” value ([2]; herbicide with malathion 1000 g ha^−1 applied 60 min prior) was 96%.
